Literature values in patent US20130202706A1 (DRUGGABILITY TECHNOLOGIES IP HOLDCO (JERSEY) LTD., priority 2010, published 2013).

Details: oral administration

## CC(C)c1c(C(=O)Nc2ccccc2)c(-c2ccccc2)c(-c2ccc(F)cc2)n1CC[C@@H](O)C[C@@H](O)CC(=O)O [Atorvastatin]
  systemic availability of HMG-CoA reductase inhibitory activity: approximately 30%
